Measurements taken from article PMC7217877, “N-AS-triggered SPMs are direct regulators of microglia in a model of Alzheimer’s disease” (Nature Communications, 2020).
“And” between values parts separate entries of the source, which are not always exact repeats. Equal values may be shown once.

Key:
neuron = experiment: N-AS generation in primary cultured cells (LC-MS/MS); format: cell-based, C57BL/6 mice; set-up: N-AS quantification (Fig 3a): dose or concentration left out as unconfirmed; conditions: replicates
Experimental: (§1) Reactions were quenched by adding equal volume of cold methanol. A 100 μl aliquot of the reaction mixture was mixed with 30 μl of distilled water containing 5 ng ml^−1 of furosemide (internal standard) for 1 min and vigorously mixed with […] of ethyl acetate for 20 min. After centrifugation at 16,000×g for 10 min, the mixtures were kept for 2 h for freezing aqueous phase. The upper ethyl acetate layer was transferred to a clean tube and evaporated to dryness under a gentle stream of nitrogen. Then, the dried extract was reconstituted in 100 µl of mobile phase and 10 µl aliquot of the solution was injected into an Agilent 6470 Triple Quad LC–MS/MS system (Agilent, Wilmington, DE) coupled with an Agilent 1260 HPLC system. Separation was performed on a Synergy Polar RP column (4 μm particle size, 2.0 mm × 150 mm, Phenomenex) using a mobile phase that consisted of methanol and water (95:5, v/v) with 0.1% formic acid at a flow rate of 0.2 ml min^−1. Quantification was carried out using multiple reaction monitoring (MRM) at m/z 340.3→263.3 for N-AS and m/z 328.9→284.8 for furosemide (internal standard) in negative ionization mode and collision energy of 20 eV. […] Also, to confirm N-AS generation in neurons, microglia, and astrocytes, these cells were treated with Aβ, and sonicated in neuronal and glial culture medium. […] To evaluate N-AS in microglia and neurons in vivo, the cells were isolated from WT mice, APP/PS1 mice and APP/PS1 mice treated with N-AS at 9 months of age. The cells were sonicated and resuspended in glial and neuronal culture medium, respectively. A 100 μl aliquot of each cell lysate were used for the determination of N-AS using a method previously described.
(§2) To confirm the generation and roles of N-AS in neurons, cells from E18 C57BL/6 mice were prepared as previously described. Cortices were dissected and then dissociated followed by incubation in papain (Worthington) at 37 °C for 15 min. […] Aβ 1–42 (10 μM, 24 h, Invitrogen, 03112) was exposed to neurons and the cells were analyzed for the generation and roles of N-AS. […]

[1] = system: immortalized human microglia; experiment: N-AS generation in human microglia (LC-MS/MS, Supplementary Fig 6a); format: cell-based
Experimental: as §1, §2

Row | Compound | N-AS quantification (Fig 3g) (neuron; Ab + supplement) | N-AS generation in human microglia ([1]; Ab 50mM + Acetyl CoA 100mM, sFig 6a) | N-AS generation, acetyl-S565 COX2 and SPM secretion, in words ([1]; Aβ-treated human microglia + acetyl-CoA) | N-AS quantification (Fig 3g) (neuron; Ab, no supplement) | N-AS quantification (Fig 3a) (neuron; Ab) | N-AS generation, in words ([1]; Aβ-treated human microglia)
1 | CC(=O)SCCNC(=O)CCNC(=O)[C@H](O)C(C)(C)COP(=O)(O)OP(=O)(O)OC[C@H]1O[C@@H](n2cnc3c(N)ncnc32)[C@H](O)[C@@H]1OP(=O)(O)O [Acetyl-CoA, acetyl-CoA] | 0.4129 and 0.455 and 0.2582 and 0.5811 and 0.497 | 10.5625 and 12.1817 and 11.3721 and 11.7769 | restored |  |  | 
2 | Ab: Aβ 1–42 (Invitrogen, 03112) used to induce an AD environment in cells |  |  |  | 0.5069 and 0.4708 and 0.3905 and 0.3625 and 0.4347 | 0.5349 and 0.246 and 0.4789 and 0.3905 and 0.3625 and 0.4347 | reduction of N-AS generation
